According to patent EP4389123A1 (priority 2022, dated 2024):

How the values were obtained:
murine prion strain RML = murine prion strain RML (Mus musculus, UniProt P04925); assay type: biochemical
RML = system: RML; set-up: species or system mice; settings: mouse, in vivo
22L = system: 22L; set-up: species or system mice; settings: mouse, in vivo
301C = system: 301C; set-up: species or system mice; settings: mouse, in vivo
Vole-CWD prion strain = system: Vole-CWD prion strain; set-up: species or system mice; settings: mouse, in vivo
[1] = system: human prion strain causing Gerstmann-Sträussler-Scheinker syndrome (GSS); set-up: species or system mice; settings: mouse, in vivo, ip

Chain of murine prion strain RML (P04925 23-230 limits assumed): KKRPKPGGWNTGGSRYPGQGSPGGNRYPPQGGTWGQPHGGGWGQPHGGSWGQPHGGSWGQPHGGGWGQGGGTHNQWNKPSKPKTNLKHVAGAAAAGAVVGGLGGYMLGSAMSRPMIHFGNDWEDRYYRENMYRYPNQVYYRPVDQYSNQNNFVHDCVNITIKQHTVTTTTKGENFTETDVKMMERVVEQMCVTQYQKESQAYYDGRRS

Row | Structure (SMILES) | prion propagation inhibitory capacity (murine prion strain RML) | times more efficient as inhibitor (murine prion strain RML) | increase in survival times (RML) | survival time prolongation (22L) | survival time prolongation (301C) | increase in survival time (Vole-CWD prion strain) | increase in survival time [1]
1 | C[n+]1ccc(-c2c3nc(c(-c4cc[n+](C)cc4)c4ccc([nH]4)c(-c4cc[n+](C)cc4)c4nc(c(-c5cc[n+](C)cc5)c5ccc2[nH]5)C=C4)C=C3)cc1 [TMPyP, reference compound] | showed prion propagation inhibitory capacity |  |  |  |  |  | 
2 | O=C(O)CCC1=C(CC(=O)O)c2cc3[nH]c(cc4nc(cc5[nH]c(cc1n2)c(CC(=O)O)c5CCC(=O)O)C(CC(=O)O)=C4CCC(=O)O)c(CC(=O)O)c3CCC(=O)O [UROI, uroporphyrin I] | showed prion propagation inhibitory capacity | 125 times | 30% | 10% | 12% | 11% | > 200%
